Results reported in ChEMBL document CHEMBL1124919, “Synthesis and biochemical studies of 7-substituted 4,6-androstadiene-3,17-diones as aromatase inhibitors” (J Med Chem, 1990).

Experiments:
Aromatase = molecular target: T1, Aromatase (Homo sapiens, UniProt P11511); experiment: In vitro inhibition of human placental cytochrome P450 19A1
T1 sequence (P11511 whole entry): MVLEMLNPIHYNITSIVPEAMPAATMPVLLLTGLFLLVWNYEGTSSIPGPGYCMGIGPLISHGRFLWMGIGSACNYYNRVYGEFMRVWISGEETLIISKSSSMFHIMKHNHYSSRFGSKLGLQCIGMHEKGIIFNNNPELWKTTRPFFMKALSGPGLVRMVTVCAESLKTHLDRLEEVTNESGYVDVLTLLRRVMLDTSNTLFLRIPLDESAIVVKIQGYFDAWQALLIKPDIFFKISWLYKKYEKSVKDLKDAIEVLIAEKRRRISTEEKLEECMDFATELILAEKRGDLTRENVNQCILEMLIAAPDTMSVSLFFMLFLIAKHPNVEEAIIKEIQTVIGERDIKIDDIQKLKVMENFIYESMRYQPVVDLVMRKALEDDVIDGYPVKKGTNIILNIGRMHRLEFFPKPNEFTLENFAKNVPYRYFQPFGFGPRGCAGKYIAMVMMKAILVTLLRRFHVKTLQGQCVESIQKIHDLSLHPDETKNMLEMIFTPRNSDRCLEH

[1] = Apparent Km value was determined; format: ADME

| SMILES | Ki (Aromatase) [nM] | Km [1] [µM] |
| --- | --- | --- |
| CC12CCC3C(C(CCc4ccc(N)cc4)=CC4=CC(=O)CCC43C)C1CCC2=O (configuration not stated) | 88 | – |
| CC12CCC3C(C(c4ccccc4)=CC4=CC(=O)CCC43C)C1CCC2=O (configuration not stated) | 1420 | – |
| CC12CCC3C(C(CCc4ccccc4)=CC4=CC(=O)CCC43C)C1CCC2=O (configuration not stated) | 174 | – |
| CC12CCC3C(C(CCc4ccc([N+](=O)[O-])cc4)=CC4=CC(=O)CCC43C)C1CCC2=O (configuration not stated) | 95 | – |
| CC12CCC3C(C(Cc4ccc([N+](=O)[O-])cc4)=CC4=CC(=O)CCC43C)C1CCC2=O (configuration not stated) | 94 | – |
| CC12CCC3C(C(Cc4ccc(N)cc4)=CC4=CC(=O)CCC43C)C1CCC2=O (configuration not stated) | 88 | – |
| C[C@]12CCC(=O)C=C1CC[C@@H]1[C@@H]2CC[C@]2(C)C(=O)CC[C@@H]12 [ANDROSTENEDIONE] | – | 0.051 |
